Results reported in patent US20050282818A1, “Ubiquitin ligase inhibitors” (Rigel Pharmaceuticals, Inc., priority 2004, published 2005).
Like-named read-outs stand apart in the source and are kept apart here.

Columns and labels:
A549 cells = test: Cell proliferation PAD assay, A549; format: cell-based; conditions: Homo sapiens, 48 hours
Method: (§1) Cell lines used are available from American Type Culture Collection (ATCC), for example, cell cultures containing A549 (ATCC# CCL-185), HeLa (ATCC# CCL-2), HCT116 ATTC# CCL-247), and H1299 (ATCC# CRL-5803) cells were maintained in T175 flasks following the ATCC recommended media and handling procedures. […] A 20,000 cells/ml solution was made for plating. Cells were plated in black Packard 96 well plates by placing 100 μl per well (2,000 cells per well). […] The definitions of the cell types used are as follows: A549 is lung carcinoma; HI 299 is non-small cell lung carcinoma; HI 155 is non-small cell lung carcinoma; AsPC-1 is pancreatic adenocarcinoma; Caov-3 is ovarian adenocarcinoma; COLO 205 is colorectal adenocarcinoma; DLD-1 colorectal adenocarcinoma; HCT116 is colorectal carcinoma; DU 145 is prostate carcinoma; ES-2 is ovarian clear cell carcinoma; H460 is large cell lung carcinoma; HELA is cervical adenocarcinoma; MIA PaCa-2 is pancreatice carcinoma; OVCAR-3 is ovarian adenocarcinoma; OVCAR8 is ovarian carcinoma; PC3 is prostate adenocarcinoma; SK-OV-3 is ovarian adenocarcinoma; SU86.86 is pancreatic carcinoma; TOV-21G is avarian clear cell carcinoma; U2OS is bone osteosarcoma; is ASPC-I is pancreatic adenocarcinoma; BXPC-3 is pabcreatic adenocarcinoma; HL60 is promyeloblast promyelocytic leukemia; K562 is bone marrow chronic myelogenous leukemia; L1210 is mouse lymphocytic leukemia; MOLT3 is T lymphoblast acute lymphoblastic leukemia; MOLT4 is T lymphoblast acute lymphoblastic leukemia; SW620 is colorectal adenocarcinoma; THP-1 is monocyte acute monocytic leukemia; U937 is histiocytic lymphoma; and UACC-257 is melanoma.
(§2) Compounds and additional media were added 24 hours after cell plating. […] All compound testing was done in duplicate using 6.3 fold dilutions starting with 10 mM. […] Taxol and at least one additional control were run on all plates. Three microliters of the compound master plate were added to deep well blocks containing 750 μl of RPMI media. One hundred microliters were transferred from the compound/media deep well blocks to the plated cells resulting in a 500 fold dilution of the compounds. Cells were grown at 37° C., 5% CO2 for 48 hours.
(§3) Cells to be analyzed by photography were fixed and stained. One hundred microliters of media were removed and 100 μl of 9.3% formamide was added to each well. Plates were left on the benchtop for 45 minutes. A staining solution containing 1.55 μl of 1 mg/ml DAPI added to 18.75 ml PBS was warmed for 15 minutes at 37° C. The cells were aspirated prior to washing with 100 μl of PBS. Seventy microliters of PBS were aspirated and 170 μl of the DAPI solution were added to each well of fixed cells. Plates were left at room temperature for one hour then aspirated and washed twice with 100 μl of PBS. The stained cells were left at 4° C. for a minimum of 16 hours before photographic analysis with Array Scan II (Cellomics). Analysis of the photographic images to determine numbers of live cells (proliferation), apoptotic cells and dead cells, were according to the methods described in U.S. Utility patent application Ser. No. 10/652,440, which incorporated herein in its entirety.

H1299 cells = test: Cell proliferation PAD assay, H1299; format: cell-based; conditions: Homo sapiens, 48 hours
Method: as §1, §2, §3

[1] = NCI-H1299, 3pt, read-out: H1299 3pt
[2] = NCI-H1299, 6pt, read-out: H1299 6pt

SMILES | IC50 (A549 cells; 3pt, read-out: A549 3pt) | IC50 (H1299 cells; [1]) | IC50 (A549 cells; 6pt, read-out: A549 6pt) | IC50 (H1299 cells; [2])
O=S(=O)(Nc1cccc2nsnc12)c1ccc(CBr)cc1 [compound 98, N-2,1,3-benzothiadiazol-4-yl-4-(bromomethyl)benzenesulfonamide] | ≥ 20 µM | ≥ 20 µM | – | –
N#Cc1ccccc1S(=O)(=O)Nc1cccc2nsnc12 [compound 100, N-2,1,3-benzothiadiazol-4-yl-2-cyanobenzenesulfonamide] | ≥ 20 µM | ≥ 20 µM | – | –
CSc1ccc(-c2ccc([N+](=O)[O-])c3nonc23)cc1 [compound 318, 7-[4-(Methylthio)phenyl]-4-nitro-2,1,3-benzoxadiazole] | – | – | < 1 µM | < 1 µM
COc1cccc(-c2ccc([N+](=O)[O-])c3nonc23)c1 [compound 319, 7-(3-Methoxyphenyl)-4-nitro-2,1,3-benzoxadiazole] | – | – | < 1 µM | < 1 µM
O=[N+]([O-])c1ccc(-c2cccc(F)c2)c2nonc12 [compound 320, 7-(3-Fluorophenyl)-4-nitro-2,1,3-benzoxadiazole] | – | – | 1 to 20 µM | < 1 µM
Cc1cc(C)cc(-c2cc(Cl)c3nonc3c2)c1 [compound 322, 4-Chloro-6-[3,5-(dimethyl)phenyl]-2,1,3-benzoxadiazole] | – | – | ≥ 20 µM | ≥ 20 µM
Cc1cc(C)cc(-c2cc(-c3cc(C)cc(C)c3)c3nonc3c2)c1 [compound 323, 4,6-bis[3,5-(dimethyl)phenyl]-2,1,3-benzoxadiazole] | – | – | ≥ 20 µM | ≥ 20 µM
Fc1cc(F)cc(-c2cc(Cl)c3nonc3c2)c1 [compound 324, 4-Chloro-6-[3,5-(difluoro)phenyl]-2,1,3-benzoxadiazole] | – | – | ≥ 20 µM | ≥ 20 µM
FC(F)(F)c1cccc(-c2cc(Cl)c3nonc3c2)c1 [compound 325, 4-Chloro-6-[3-(trifluoromethyl)phenyl]-2,1,3-benzoxadiazole] | – | – | ≥ 20 µM | ≥ 20 µM
FC(F)(F)c1ccc(-c2cc(Cl)c3nonc3c2)cc1 [compound 327, 4-Chloro-6-[4-(trifluoromethyl)phenyl]-2,1,3-benzoxadiazole] | – | – | ≥ 20 µM | ≥ 20 µM
CC(C)(C)c1ccc(-c2cc(Cl)c3nonc3c2)cc1 [compound 329, 4-Chloro-6-(4-(tert-butyl)phenyl)-2,1,3-benzoxadiazole] | – | – | ≥ 20 µM | ≥ 20 µM

Continued, values first:

IC50 (A549 cells; 3pt, read-out: A549 3pt) | IC50 (H1299 cells; [1]) | IC50 (A549 cells; 6pt, read-out: A549 6pt) | IC50 (H1299 cells; [2]) | SMILES
≥ 20 µM | ≥ 20 µM | – | – | N#Cc1cccnc1N1CCN(S(=O)(=O)c2cccc3nonc23)CC1 [compound 119, 2-[4-(2,1,3-benzoxadiazol-4-ylsulfonyl)piperazin-1-yl]nicotinonitrile]
≥ 20 µM | ≥ 20 µM | – | – | N#Cc1ccc(N2CCN(S(=O)(=O)c3cccc4nonc34)CC2)nc1 [compound 120, 6-[4-(2,1,3-benzoxadiazol-4-ylsulfonyl)piperazin-1-yl]nicotinonitrile]
≥ 20 µM | ≥ 20 µM | – | – | O=S(=O)(c1cccc2nonc12)N1CCN(c2ccccn2)CC1 [compound 123, 4-[(4-Pyridin-2-ylpiperazin-1-yl)-sulfonyl]-2,1,3-benzoxadiazole]
≥ 20 µM | ≥ 20 µM | – | – | O=S(=O)(c1cccc2nonc12)N1CCN(c2cc(C(F)(F)F)ccn2)CC1 [compound 124, 4-({4-[4-(trifluoromethyl)pyridin-2-yl]piperazin-1-yl}sulfonyl)-2,1,3-benzoxadiazole]
≥ 20 µM | ≥ 20 µM | – | – | O=S(=O)(c1cccc2nonc12)N1CCN(c2cccc(C(F)(F)F)c2)CC1 [compound 125, 4({4-[3-(trifluoromethyl)phenyl]piperazin-1-yl}sulfonyl)-2,1,3-benzoxadiazole]
≥ 20 µM | ≥ 20 µM | – | – | O=S(=O)(c1cccc2nonc12)N1CCN(c2ccncc2)CC1 [compound 126, 4-[(4-pyridin-4-ylpiperazin-1-yl)sulfonyl]-2,1,3-benzoxadiazole]
≥ 20 µM | ≥ 20 µM | – | – | O=S(=O)(c1cccc2nonc12)N1CCN(CCN2CCOCC2)CC1 [compound 127]
≥ 20 µM | ≥ 20 µM | – | – | CC(=O)N1CCN(S(=O)(=O)c2cccc3nonc23)CC1 [compound 128, 4-[(4-acetylpiperazin-1-yl)sulfonyl]-2,1,3-benzoxadiazole]
≥ 20 µM | ≥ 20 µM | – | – | O=C(CN1CCN(S(=O)(=O)c2cccc3nonc23)CC1)N1CCOCC1 [compound 129, 4-{[4-(2-morpholin-4-yl-2-oxoethyl)piperazin-1-yl]sulfonyl}-2,1,3-benzoxadiazole]
≥ 20 µM | ≥ 20 µM | – | – | O=S(=O)(c1cccc2nonc12)N1CCN(c2ncccn2)CC1 [compound 130, 4-[(4-pyrimidin-2-ylpiperazin-1-yl)sulfonyl]-2,1,3-benzoxadiazole]
≥ 20 µM | ≥ 20 µM | – | – | O=S(=O)(c1cccc2nonc12)N1CCN(c2cnccn2)CC1 [compound 131, 4-[(4-pyrazin-2-ylpiperazin-1-yl)sulfonyl]-2,1,3-benzoxadiazole]
≥ 20 µM | ≥ 20 µM | – | – | O=S(=O)(c1cccc2nonc12)N1CCN(c2ccc(Cl)c(C(F)(F)F)c2)CC1 [compound 132, 4-({4-[4-chloro-3-(trifluoromethyl)phenyl]piperazin-1-yl}sulfonyl)-2,1,3-benzoxadiazole]
– | – | ≥ 20 µM | ≥ 20 µM | Cc1cccc(-c2cc(Cl)c3nonc3c2)c1 [compound 326, 4-Chloro-6-(3-methylphenyl)-2,1,3-benzoxadiazole]
– | – | ≥ 20 µM | ≥ 20 µM | COc1cccc(-c2cc(Cl)c3nonc3c2)c1 [compound 328, 4-Chloro-6-(3-methoxyphenyl)-2,1,3-benzoxadiazole]
